The values that follow come from patent publication US5801182A, “Amine substituted compounds” (Cell Therapeutics, Inc., priority 1995, dated 1998).

Series [1] concerns polymorphonuclear leukocytes. Conditions: U.S. Pat. No. 4,636,507; cited from earlier work.
Series [2] concerns CFU-GM in mouse femoral marrow. Particulars: in vivo.
Excerpt: Mouse spleen conditioned-medium, at a concentration of 2%, was used in this assay. The medium and semi-solid culture mix were procured from Stem Cell Technologies in Vancouver, BC.
Another series concerns PAPH. In words: PAPH inhibition / DAG production in TNF-stimulated human mesangial cells. In kind it is cell-based. Particulars: specific activation pathway that does not involve PI. The source says: These inventive compounds and pharmaceutical compositions are capable of, among other things, inhibiting subspecies of LPAAT and PAPH enzymes with substrate specificity for intermediates with 1,2-diunsaturated and 1-alkyl, 2-unsaturated subspecies. […] In contrast, the inventive compounds affect that subset of PAPH and LPAAT relating to substrates with unsaturated fatty acids other than arachidonate in the sn-2 position, not the housekeeping forms of these enzymes that serve the PI pathway.

For series [3], the system named is tumor necrosis factor, TNF. Conditions: cited from earlier work.
The subject of series [4] is Balb/3T3 cells. In words: PDGF-induced proliferation of Balb/3T3 cells (tritiated thymidine). Particulars: Mus musculus, BALB/3T3, 24 h; PDGF-stimulated; FIGS. 2 and 4; read-out: concentrations inhibiting proliferation of Balb/3T3 cells stimulated by PDGF. Format: cell-based. As for the experimental part: Disregulated PDGF-proliferative response has been linked to a variety of diseases, including, e.g., restenosis, atherosclerosis, fibrosis, and tumor cell angiogenesis. Balb/3T3 cells respond vigorously to PDGF stimulation, and are useful in vitro models for further study of PDGF-induced proliferation.
Balb/3T3 cells were plated in low serum-containing medium for 24 hours prior to stimulation with various concentrations of inventive compounds nos. 3556 and 4500. PDGF was added at varying concentrations along with tritiated thymidine. The cells were allowed to incubate for one day, following addition of PDGF and thymidine. Twenty-four hours later, the cells were harvested and counted by liquid scintillation counting. FIGS. 2 and 4 report data for inventive compounds nos. 3556 and 4500, respectively, obtained in this proliferation assay. The results shown in each respective figure illustrate that inventive compounds nos.

For series [5], the system named is Balb/3T3 cells. In words: Viability (cytotoxicity) assay of Balb/3T3 cells with BCECF. Format: cell-based. Particulars: at the concentrations at which the compounds inhibit proliferation; vs control value of 100%; FIGS. 3 and 5. On the procedure:
In conjunction with the Balb/3T3 proliferation assay, a related viability assay was conducted to assess the cytotoxicity of compounds which inhibit proliferation in this system. The assay protocol was identical to that performed above except that tritiated thymidine was not added after the 24 hour incubation with PDGF. In this cytotoxicity assay, after incubating the cells, a 10 μM solution of BCECF was added and the cells were incubated for 30 minutes at 37° C. Following this incubation, BCECF was replaced with PBS and the plate read for fluorescence in a Millipore cytofluorometer. Data obtained was plotted as a percent of control versus concentration of inventive compound tested. FIGS. 3 and 5 represent the results of this viability assay, for compounds nos. 3556 and 4500, respectively.

Series [6] concerns HIV long terminal repeat (LTR) promotor. As to the kind of experiment: Inhibition of reporter gene (alkaline phosphatase) expression directed by HIV-LTR promotor in 293-EBNA cells. In kind it is cell-based. Conditions: Human immunodeficiency virus 1; reporter gene directed by HIV-LTR promotor in 293-EBNA cells; FIGS. 17, 19, 21. The source says:
This example is an assay used to measure anti-viral activity of inventive compounds nos. […] This assay is predictive of anti-viral activity for retroviruses. Specifically,a plasmid construct, pHIV.AP, using the human immunodeficiency virus (HIV) long terminal repeat (LTR) promotor [derived from pU3R-III CAT (Sodroski et al. Science, Vol. 227, page 171, 1985) to direct the expression of secreted human placental alkaline phosphatase reporter gene and an expression vector for a 72 amino acids tat protein from HIV (Frankel et al., Cell, Vol. 55, pages 1189-1193, 1988) were transfected into a tumor cell line (e.g., 293-EBNA cells). The stably transfected cells were treated with various concentrations of the inventive compounds. The expression of the alkaline phosphatase (AP) reporter gene in the individual cultures was then measured by following the change in absorbance at A405 of cell conditioned media in the presence of a suitable substrate (e.g., ortho-nitrophenol phosphate). Berger et al., Gene, Vol. 66, pages 1-10, 1988.

Series [7] in a line: Viability of 293-EBNA cells (alamarBlue colorimetric assay). Particulars: human, 293-ebna cells; alamarBlue; FIGS. 18, 20, 21; read-out: LD50, 293-EBNA cells. In kind it is cell-based. On the procedure:
(§1) The effect of respective inventive compounds on the viability of 293-EBNA cells was measured by a colorimetric assay that uses the alamarBlue® dye (purchased from Alamar Biosciences, Inc.) to report cell proliferation, viability and cytotoxicity. This dye is an oxidation-reduction (Redox) indicator that changes color in response to chemical reduction of growth medium resulting from cell growth. The general procedure involves adding alamarBlue® in an amount equal to 10% of the culture volume, returning the culture to incubator for four hours, and measuring the absorbance at 570 nm after subtraction of background absorbance at 600 nm.
In general terms: Alamar Blue is a resazurin reagent that responds to reducing activity.

In the next series the test system is 293-EBNA cells. The series is described as above. Format: cell-based. As for the experimental part: as §1
For another series, the system named is JR-CSF strain of HIV-1. In words: HIV-1 JR-CSF infection of human peripheral blood lymphocytes (p24 antigen ELISA). In kind it is cell-based. Particulars: JR-CSF HIV-1, FIG. 22. As for the experimental part:
3556, to prevent promotion of fresh isolates of JR-CSF strain of HIV-1 infection of human peripheral blood lymphocytes (PBL).
In a protocol for infecting a PBL cell suspension, JR-CSF HIV-1 was clarified at low-speed centrifugation (2,000-3,000 rpm) or filtration and stored in aliquots at -70° C. To maintain consistent titers, HIV-1 aliquots were not subjected to repeated freezing and thawing and any remainder was discarded. Virus aliquots were thawed at room temperature or under cold running water for more rapid thawing and maintained in ice after thawing. Just prior to infection of PBL cells, the supernatant or dilution were warmed to room temperature.
Human PBL cells taken from a suitable donor were centrifuged down at 1000 rpm for 5-10 minutes at room temperature. While cells were spinning, the virus inoculum was prepared in medium by adding 10 μg/ml Polybrene®. The centrifuged cells were resuspended in virus inoculum, using 1 ml of virus inoculum per 10^7 cells. A more efficient HIV-1 infection is obtained with smaller amounts of inoculum. The cells were incubated at 37° C. in the presence of virus inoculum for 2 hours, shaking the suspension every half hour. After 2 hours, the suspension was spun down, the virus inoculum removed and the cells were washed with 10 ml of fresh media. […]
A general note: ELISA stands for enzyme-linked immunosorbent assay.

Where two headings read alike, the source gives them in different places.

With `CC(O)CCCCn1c(=O)c2c(ncn2C)n(C)c1=O` (centres unmarked) [M1, 1-(5-hydroxyhexyl)-3,7-dimethylxanthine], in series [1], the “chemotaxis in polymorphonuclear leukocytes” value was “enhance chemotaxis”.
Take `O=c1[nH]cc(F)c(=O)[nH]1` [5-fluorouracil]: the “CFU-GM in mouse femoral marrow” value in series [2] is “no CFU-GM were detectable”.
`CC(=O)CCCCn1c(=O)c2c(ncn2C)n(C)c1=O` [PTX, 1-(5-oxohexyl)-3,7-dimethylxanthine]: the “inhibition of PAPH” value in the series with PAPH is “blocks PAPH”. The BMT-related complications entry in [3] (co-administered PTX and GM-CSF, allogeneic bone marrow transplant patients) was “reduced BMT-related complications”. In addition, the TNF levels result in series [3] (co-administered PTX and GM-CSF, patients undergoing allogeneic bone marrow transplant) was “decreased levels of tumor necrosis factor, TNF”; in series [3] (normal volunteers), “TNF levels were higher”. In addition, the “chemotaxis in polymorphonuclear leukocytes” value in [1] was “enhance chemotaxis”.
A word on the IC50: it is the midpoint of a concentration-inhibition curve. Lower therefore signals higher potency. Take `CCCCCCCCNCCCCCCCCCCCn1c(=O)c2c(ncn2C)n(C)c1=O` [compound no. 3556, 1-(11-octylaminoundecyl)-3,7-dimethylxanthine]: in the series on Balb/3T3 cells [4], the minimal effective concentration was less than 30 µM. Also, the “cytotoxicity to Balb/3T3 cells” value with Balb/3T3 cells [5] is given as “not cytotoxic to any cells”. In series [6], the 50% inhibitory concentration (IC50) is approximately 2.5 µM. Besides, in [7], the CC50 is approximately 12.5 µM. The “concentration at which cytotoxicity becomes significant” value in the series on 293-EBNA cells was more than 10 µM. For the same molecule, the “decrease of HIV-1 infection of PBL” value with JR-CSF strain of HIV-1 (1 μM) is “decreased infection by about two to three fold”. In addition, the “HIV-1 infection of PBL” value with JR-CSF strain of HIV-1 (10 and 20 μM) is “virtually eliminated viral infection”.
